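Five compound concentrations were applied to cells in 96-well plates for 48 hours; endpoints were derived by simple linear interpolation of the resulting dose-response curve. GI50 marks 50% less growth.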 Active and inactive are the calls of the source. Rule as the data show it: active = GI50 up to about 1.1 µM and inactive = higher.
Assays:
Assay in all cases: NCI-60 cell line screen, 48 h
[1] = tested on: ACHN
[2] = tested on: HCT-116
[3] = tested on: SN12C
[4] = tested on: LOX IMVI
[5] = tested on: T47D
[6] = tested on: SK-MEL-28
[7] = tested on: Malme-3M
[8] = tested on: OVCAR-4
[9] = tested on: SW-620
[10] = tested on: RXF 393
[11] = tested on: HOP-92
[12] = tested on: UACC-257
[13] = tested on: HCC 2998
[14] = tested on: U-251
[15] = tested on: EKVX
[16] = tested on: A549
[17] = tested on: NCI-H522
[18] = tested on: HL-60
[19] = tested on: HT-29
[20] = tested on: MOLT-4

| SMILES | GI50 [1] | GI50 [2] | GI50 [3] | GI50 [4] | GI50 [5] | GI50 [6] | GI50 [7] | GI50 [8] | GI50 [9] | GI50 [10] | GI50 [11] | GI50 [12] | GI50 [13] | GI50 [14] | GI50 [15] | GI50 [16] | GI50 [17] | GI50 [18] | GI50 [19] | GI50 [20] |
| --- | --- | --- | --- | --- | --- | --- | --- | --- | --- | --- | --- | --- | --- | --- | --- | --- | --- | --- | --- | --- |
| N#CCCN(CCCN(C(=O)Nc1ccccc1)c1ccccc1)C(=O)Nc1ccccc1 | > 100 µM (inactive) | > 100 µM (inactive) | > 100 µM (inactive) | > 100 µM (inactive) | > 100 µM (inactive) | > 100 µM (inactive) | > 100 µM (inactive) | > 100 µM (inactive) | > 100 µM (inactive) | 46.5 µM (inactive) | 71.1 µM (inactive) | > 100 µM (inactive) | > 100 µM (inactive) | > 100 µM (inactive) | > 100 µM (inactive) | 78.9 µM (inactive) | > 100 µM (inactive) | 27.2 µM (inactive) | > 100 µM (inactive) | 32.6 µM (inactive) |
| O=C1c2c(ccc3c2CCCC3)CC12Cc1ccccc1C2 | 7.73 µM (inactive) | 5.43 µM (inactive) | 21.8 µM (inactive) | 10.1 µM (inactive) | 17.9 µM (inactive) | 14.4 µM (inactive) | 5.48 µM (inactive) | 40.8 µM (inactive) | 4.88 µM (inactive) | 11 µM (inactive) | 12.7 µM (inactive) | 16.6 µM (inactive) | 19.1 µM (inactive) | 27.2 µM (inactive) | 20 µM (inactive) | 13.1 µM (inactive) | 12.8 µM (inactive) | 11.2 µM (inactive) | 5.96 µM (inactive) | 4.03 µM (inactive) |
| CC[C@H]1C=CCC[C@@]2(C[C@@H]3CC[C@@H]4[C@H](C(=O)OCCCCCCCCCCCCCCCC(=O)N(CCCNC(C)=O)C[C@H](CCNC(C)=O)OC(C)=O)[C@]5(CCC[C@@H](C)O5)NC(=[N+]34)N2)O1 | 0.382 µM (active) | 0.0405 µM (active) | 0.516 µM (active) | 0.0277 µM (active) | 0.249 µM (active) | 0.757 µM (active) | 0.21 µM (active) | 0.183 µM (active) | 0.264 µM (active) | 0.187 µM (active) | 0.0659 µM (active) | 0.0281 µM (active) | 0.023 µM (active) | 0.0538 µM (active) | 0.392 µM (active) | 0.215 µM (active) | 0.0331 µM (active) | 0.0745 µM (active) | 0.0344 µM (active) | 0.0328 µM (active) |
| CCN(CC)c1nc(=O)c(C(=O)C(C)(C)C)c(C(C)(C)C)o1 | > 100 µM (inactive) | > 100 µM (inactive) | > 100 µM (inactive) | > 100 µM (inactive) | > 100 µM (inactive) | > 100 µM (inactive) | > 100 µM (inactive) | > 100 µM (inactive) | > 100 µM (inactive) | > 100 µM (inactive) | > 100 µM (inactive) | > 100 µM (inactive) | > 100 µM (inactive) | > 100 µM (inactive) | > 100 µM (inactive) | > 100 µM (inactive) | > 100 µM (inactive) | > 100 µM (inactive) | > 100 µM (inactive) | > 100 µM (inactive) |
| COc1ccc(S(=O)(=O)N/N=C/C(=O)O)cc1 | 354 µM (inactive) | 445 µM (inactive) | 475 µM (inactive) | 248 µM (inactive) | 695 µM (inactive) | 764 µM (inactive) | 832 µM (inactive) | 524 µM (inactive) | 485 µM (inactive) | 410 µM (inactive) | 364 µM (inactive) | 849 µM (inactive) | 607 µM (inactive) | 499 µM (inactive) | 1160 µM (inactive) | 849 µM (inactive) | 275 µM (inactive) | 185 µM (inactive) | 336 µM (inactive) | 193 µM (inactive) |

Source: ChEMBL document CHEMBL1201862, “PubChem BioAssay data set” (2004)
